Assay results as given in PubChem BioAssay AID2060599 (Molecular Pharmacology Branch, DTP, NCI, 2025).

Tested on: 817829-284-R-J1-PDC complex spheroids, viability
Assay: Anticancer human tumor 817829-284-R-J1-PDC patient-derived colon adenocarcinoma cell line growth inhibition [CLK]
Settings: for viability, T/C: stronger effect = lower value
How it was run: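 Patient-derived tumor cells grown as complex spheroids with HUVEC endothelial cells and mesenchymal stem cells, treated with drug combinations. Concentrations descend in half-log steps from near clinical Cmax, or from 10 microM if Cmax unknown.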

[1] = curve of first compound, second compound 0.0316 µM
[2] = curve of first compound, second compound 0.1 µM
[3] = curve of first compound, second compound 0.316 µM
[4] = curve of first compound, second compound 1 µM
[5] = curve of first compound, second compound 3.16 µM
[6] = curve of first compound, second compound 10 µM
[7] = second compound 0.0316 µM, first compound 0.0316 µM
[8] = second compound 0.0316 µM, first compound 0.1 µM
[9] = second compound 0.1 µM, first compound 0.0316 µM
[10] = second compound 0.1 µM, first compound 0.1 µM
[11] = second compound 0.316 µM, first compound 0.0316 µM
[12] = second compound 0.316 µM, first compound 0.1 µM
[13] = second compound 1 µM, first compound 0.0316 µM
[14] = second compound 1 µM, first compound 0.1 µM
[15] = second compound 3.16 µM, first compound 0.0316 µM
[16] = second compound 3.16 µM, first compound 0.1 µM
[17] = second compound 10 µM, first compound 0.0316 µM
[18] = second compound 10 µM, first compound 0.1 µM
[19] = second compound 0.0316 µM, first compound 0.316 µM
[20] = second compound 0.0316 µM, first compound 1 µM
[21] = second compound 0.0316 µM, first compound 3.16 µM
[22] = second compound 0.0316 µM, first compound 10 µM
[23] = second compound 0.1 µM, first compound 0.316 µM
[24] = second compound 0.1 µM, first compound 1 µM
[25] = second compound 0.1 µM, first compound 3.16 µM
[26] = second compound 0.1 µM, first compound 10 µM
[27] = second compound 0.316 µM, first compound 0.316 µM
[28] = second compound 0.316 µM, first compound 1 µM
[29] = second compound 0.316 µM, first compound 3.16 µM
[30] = second compound 0.316 µM, first compound 10 µM
[31] = second compound 1 µM, first compound 0.316 µM
[32] = second compound 1 µM, first compound 1 µM
[33] = second compound 1 µM, first compound 3.16 µM
[34] = second compound 1 µM, first compound 10 µM
[35] = second compound 3.16 µM, first compound 0.316 µM
[36] = second compound 3.16 µM, first compound 1 µM
[37] = second compound 3.16 µM, first compound 3.16 µM
[38] = second compound 3.16 µM, first compound 10 µM
[39] = second compound 10 µM, first compound 0.316 µM
[40] = second compound 10 µM, first compound 1 µM
[41] = second compound 10 µM, first compound 3.16 µM
[42] = second compound 10 µM, first compound 10 µM
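Note: spheroids exposed to the agents for seven days before readout.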

With `Cn1ncnc1[C@H]1c2n[nH]c(=O)c3cc(F)cc(c23)N[C@@H]1c1ccc(F)cc1` + CN1CCN(c2cc(C(=O)Nc3cc4cc(-c5cnn(C)c5)ccc4cn3)ccn2)CC1 the IC50 [1] was 2.58 nM, the IC50 [2] was less than 0.316 nM and the IC50 [3] was less than 0.316 nM. For the same molecule, the IC50 [4] was less than 0.316 nM, the IC50 [5] was less than 0.316 nM and the IC50 [6] was less than 0.316 nM. The viability, T/C (second compound 0.0316 µM, first compound 0.000316 µM) was 60.1%, the viability, T/C (second compound 0.0316 µM, first compound 0.001 µM) was 54.6% and the viability, T/C (second compound 0.0316 µM, first compound 0.00316 µM) was 47.3%. For the same molecule, the viability, T/C (second compound 0.0316 µM, first compound 0.01 µM) was 43.5%, the viability, T/C [7] was 32.6% and the viability, T/C [8] was 24.1%. For the same molecule, the viability, T/C (second compound 0.1 µM, first compound 0.000316 µM) was 13.6%, the viability, T/C (second compound 0.1 µM, first compound 0.001 µM) was 14% and the viability, T/C (second compound 0.1 µM, first compound 0.00316 µM) was 15.3%. For the same molecule, the viability, T/C (second compound 0.1 µM, first compound 0.01 µM) was 14%, the viability, T/C [9] was 15.8% and the viability, T/C [10] was 14.7%. It also gave a viability, T/C (second compound 0.316 µM, first compound 0.000316 µM) of 1.91%, a viability, T/C (second compound 0.316 µM, first compound 0.001 µM) of 2.09% and a viability, T/C (second compound 0.316 µM, first compound 0.00316 µM) of 2.16%. For the same molecule, the viability, T/C (second compound 0.316 µM, first compound 0.01 µM) was 1.96%, the viability, T/C [11] was 1.91% and the viability, T/C [12] was 1.89%. For the same molecule, the viability, T/C (second compound 1 µM, first compound 0.000316 µM) was 0.11%, the viability, T/C (second compound 1 µM, first compound 0.001 µM) was 0.08% and the viability, T/C (second compound 1 µM, first compound 0.00316 µM) was 0.09%. The viability, T/C (second compound 1 µM, first compound 0.01 µM) was 0.09%, the viability, T/C [13] was 0.08% and the viability, T/C [14] was 0.09%. It also gave a viability, T/C (second compound 3.16 µM, first compound 0.000316 µM) of 0.1%, a viability, T/C (second compound 3.16 µM, first compound 0.001 µM) of 0.11% and a viability, T/C (second compound 3.16 µM, first compound 0.00316 µM) of 0.14%. It also gave a viability, T/C (second compound 3.16 µM, first compound 0.01 µM) of 0.1%, a viability, T/C [15] of 0.15% and a viability, T/C [16] of 0.11%. The viability, T/C (second compound 10 µM, first compound 0.000316 µM) was 0.04%, the viability, T/C (second compound 10 µM, first compound 0.001 µM) was 0.05% and the viability, T/C (second compound 10 µM, first compound 0.00316 µM) was 0.08%. The viability, T/C (second compound 10 µM, first compound 0.01 µM) was 0.06%, the viability, T/C [17] was 0.07% and the viability, T/C [18] was 0.09%.
With `CC1COCCN1c1cc(C2(S(C)(=N)=O)CC2)nc(-c2ccnc3[nH]ccc23)n1` (stereo not drawn) the viability, T/C (compound 0.0316 µM) was 63.5%, the viability, T/C (compound 0.1 µM) was 99.9% and the viability, T/C (compound 0.316 µM) was 62.4%. It also gave a viability, T/C (compound 1 µM) of 39%, a viability, T/C (compound 3.16 µM) of 9.17% and a viability, T/C (compound 10 µM) of 4.99%. The IC50 (curve of compound) was 626 nM.
`CC1(C)CCC(CN2CCN(c3ccc(C(=O)NS(=O)(=O)c4ccc(NCC5CCOCC5)c([N+](=O)[O-])c4)c(Oc4cnc5[nH]ccc5c4)c3)CC2)=C(c2ccc(Cl)cc2)C1` + CN1CCN(c2cc(C(=O)Nc3cc4cc(-c5cnn(C)c5)ccc4cn3)ccn2)CC1 gave an IC50 [1] of 4030 nM, an IC50 [2] of less than 31.6 nM and an IC50 [3] of less than 31.6 nM. The IC50 [4] was less than 31.6 nM, the IC50 [5] was less than 31.6 nM and the IC50 [6] was less than 31.6 nM. It also gave a viability, T/C [7] of 92.8%, a viability, T/C [8] of 64.9% and a viability, T/C [19] of 46.8%. It also gave a viability, T/C [20] of 80.8%, a viability, T/C [21] of 63.2% and a viability, T/C [22] of 1.02%. It also gave a viability, T/C [9] of 18%, a viability, T/C [10] of 19.6% and a viability, T/C [23] of 16.1%. It also gave a viability, T/C [24] of 18.4%, a viability, T/C [25] of 20% and a viability, T/C [26] of 0.96%. The viability, T/C [11] was 1.84%, the viability, T/C [12] was 1.97% and the viability, T/C [27] was 1.65%. The viability, T/C [28] was 2.48%, the viability, T/C [29] was 1.41% and the viability, T/C [30] was 0.06%. The viability, T/C [13] was 0.11%, the viability, T/C [14] was 0.09% and the viability, T/C [31] was 0.08%. It also gave a viability, T/C [32] of 0.09%, a viability, T/C [33] of 0.09% and a viability, T/C [34] of 0.06%. It also gave a viability, T/C [15] of 0.12%, a viability, T/C [16] of 0.12% and a viability, T/C [35] of 0.12%. The viability, T/C [36] was 0.11%, the viability, T/C [37] was 0.13% and the viability, T/C [38] was 0.07%. It also gave a viability, T/C [17] of 0.06%, a viability, T/C [18] of 0.07% and a viability, T/C [39] of 0.09%. For the same molecule, the viability, T/C [40] was 0.09%, the viability, T/C [41] was 0.17% and the viability, T/C [42] was 0.1%.
With `COC1C=CCC(C)C(C)S(=O)(=O)NC(=O)c2ccc3c(c2)N(CC2CCC21)CC1(CCCc2cc(Cl)ccc21)CO3` (stereo not drawn) + CN1CCN(c2cc(C(=O)Nc3cc4cc(-c5cnn(C)c5)ccc4cn3)ccn2)CC1 the IC50 [1] was 1410 nM, the IC50 [2] was less than 31.6 nM and the IC50 [3] was less than 31.6 nM. For the same molecule, the IC50 [4] was less than 31.6 nM, the IC50 [5] was less than 31.6 nM and the IC50 [6] was less than 31.6 nM. For the same molecule, the viability, T/C [7] was 52.5%, the viability, T/C [8] was 70% and the viability, T/C [19] was 51.2%. The viability, T/C [20] was 63.3%, the viability, T/C [21] was 28.2% and the viability, T/C [22] was 7.26%. It also gave a viability, T/C [9] of 21.4%, a viability, T/C [10] of 18.1% and a viability, T/C [23] of 16.3%. The viability, T/C [24] was 12.3%, the viability, T/C [25] was 5.31% and the viability, T/C [26] was 2.6%. It also gave a viability, T/C [11] of 1.91%, a viability, T/C [12] of 1.47% and a viability, T/C [27] of 1.45%. For the same molecule, the viability, T/C [28] was 1.31%, the viability, T/C [29] was 1.5% and the viability, T/C [30] was 0.95%. It also gave a viability, T/C [13] of 0.08%, a viability, T/C [14] of 0.21% and a viability, T/C [31] of 0.16%. The viability, T/C [32] was 0.07%, the viability, T/C [33] was 0.35% and the viability, T/C [34] was 0.05%. The viability, T/C [15] was 0.15%, the viability, T/C [16] was 0.16% and the viability, T/C [35] was 0.23%. The viability, T/C [36] was 0.46%, the viability, T/C [37] was 0.28% and the viability, T/C [38] was 0.08%. The viability, T/C [17] was 0.48%, the viability, T/C [18] was 0.13% and the viability, T/C [39] was 0.19%. For the same molecule, the viability, T/C [40] was 0.31%, the viability, T/C [41] was 0.37% and the viability, T/C [42] was 0.17%.
